Test results reported in PubChem BioAssay (NCI).
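Exposure lasted 48 hours, with cells grown in 96-well plates and compounds tested at five concentrations. GI50 is the concentration that inhibits growth by half. TGI: concentration producing complete growth inhibition.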

Legend:
Test in all cases: inhibition of tumour cell growth, NCI panel, 48 h
T-47D breast = tested on: T-47D breast
ACHN renal = tested on: ACHN renal
OVCAR-4 ovarian = tested on: OVCAR-4 ovarian
HCC-2998 colon = tested on: HCC-2998 colon
786-0 renal = tested on: 786-0 renal
KM12 colon = tested on: KM12 colon
SN12C renal = tested on: SN12C renal
RXF 393 renal = tested on: RXF 393 renal
HOP-92 NSCLC = tested on: HOP-92 NSCLC
SNB-75 CNS = tested on: SNB-75 CNS
UO-31 renal = tested on: UO-31 renal
MCF7 breast = tested on: MCF7 breast
M14 melanoma = tested on: M14 melanoma
UACC-257 melanoma = tested on: UACC-257 melanoma
EKVX NSCLC = tested on: EKVX NSCLC
NCI/ADR-RES ovarian = tested on: NCI/ADR-RES ovarian
SNB-19 CNS = tested on: SNB-19 CNS
NCI-H460 lung = tested on: NCI-H460 lung
IGROV1 ovarian = tested on: IGROV1 ovarian
K-562 leukemia = tested on: K-562 leukemia
HT29 colon = tested on: HT29 colon
UACC-62 melanoma = tested on: UACC-62 melanoma
SF-268 CNS = tested on: SF-268 CNS
COLO 205 colon = tested on: COLO 205 colon
SR leukemia = tested on: SR leukemia
NCI-H522 lung = tested on: NCI-H522 lung
RPMI-8226 leukemia = tested on: RPMI-8226 leukemia
NCI-H226 lung = tested on: NCI-H226 lung
SK-MEL-2 melanoma = tested on: SK-MEL-2 melanoma
HCT-15 colon = tested on: HCT-15 colon
SW-620 colon = tested on: SW-620 colon
PC-3 prostate = tested on: PC-3 prostate
A549 NSCLC = tested on: A549 NSCLC
CCRF-CEM leukemia = tested on: CCRF-CEM leukemia
MALME-3M melanoma = tested on: MALME-3M melanoma
OVCAR-5 ovarian = tested on: OVCAR-5 ovarian
CAKI-1 renal = tested on: CAKI-1 renal
TK-10 renal = tested on: TK-10 renal
HCT-116 colon = tested on: HCT-116 colon
HS 578T breast = tested on: HS 578T breast
OVCAR-8 ovarian = tested on: OVCAR-8 ovarian
MOLT-4 leukemia = tested on: MOLT-4 leukemia
SF-295 CNS = tested on: SF-295 CNS
BT-549 breast = tested on: BT-549 breast
SK-MEL-5 melanoma = tested on: SK-MEL-5 melanoma
SK-MEL-28 melanoma = tested on: SK-MEL-28 melanoma
U251 CNS = tested on: U251 CNS
MDA-MB-435 = tested on: MDA-MB-435
DU-145 prostate = tested on: DU-145 prostate
LOX IMVI melanoma = tested on: LOX IMVI melanoma
SF-539 CNS = tested on: SF-539 CNS
SK-OV-3 ovarian = tested on: SK-OV-3 ovarian
MDA-MB-231 breast = tested on: MDA-MB-231 breast
NCI-H23 lung = tested on: NCI-H23 lung
HOP-62 NSCLC = tested on: HOP-62 NSCLC
A498 renal = tested on: A498 renal
HL-60(TB) leukemia = tested on: HL-60(TB) leukemia
OVCAR-3 ovarian = tested on: OVCAR-3 ovarian

Structure (SMILES): Oc1ccccc1/C=N\NC(=S)Nc1ccc(F)cc1
- GI50 (T-47D breast): 3.34 µM
- TGI (T-47D breast): 60.1 µM
- GI50 (ACHN renal): 0.674 µM
- TGI (ACHN renal): > 100 µM
- GI50 (OVCAR-4 ovarian): 0.462 µM
- TGI (OVCAR-4 ovarian): 49.4 µM
- GI50 (HCC-2998 colon): 3.28 µM
- TGI (HCC-2998 colon): 28.5 µM
- GI50 (786-0 renal): 3.38 µM
- TGI (786-0 renal): > 100 µM
- GI50 (KM12 colon): 0.799 µM
- TGI (KM12 colon): 45 µM
- GI50 (SN12C renal): 2.37 µM
- TGI (SN12C renal): > 93.7 µM
- GI50 (RXF 393 renal): 2.63 µM
- TGI (RXF 393 renal): 65.8 µM
- GI50 (HOP-92 NSCLC): 0.962 µM
- TGI (HOP-92 NSCLC): > 100 µM
- GI50 (SNB-75 CNS): 1.66 µM
- TGI (SNB-75 CNS): 14.9 µM
- GI50 (UO-31 renal): 0.472 µM
- TGI (UO-31 renal): 4.97 µM
- GI50 (MCF7 breast): 0.888 µM
- TGI (MCF7 breast): > 100 µM
- GI50 (M14 melanoma): 1.01 µM
- TGI (M14 melanoma): 3.57 µM
- GI50 (UACC-257 melanoma): 2.68 µM
- TGI (UACC-257 melanoma): > 65.3 µM
- GI50 (EKVX NSCLC): 3.91 µM
- TGI (EKVX NSCLC): > 50.4 µM
- GI50 (NCI/ADR-RES ovarian): 0.443 µM
- TGI (NCI/ADR-RES ovarian): > 37.8 µM
- GI50 (SNB-19 CNS): 2.32 µM
- TGI (SNB-19 CNS): > 100 µM
- GI50 (NCI-H460 lung): 0.446 µM
- TGI (NCI-H460 lung): 18.1 µM
- GI50 (IGROV1 ovarian): 1.31 µM
- TGI (IGROV1 ovarian): 17.7 µM
- GI50 (K-562 leukemia): 0.582 µM
- TGI (K-562 leukemia): > 100 µM
- GI50 (HT29 colon): 4.49 µM
- TGI (HT29 colon): 25 µM
- GI50 (UACC-62 melanoma): 0.95 µM
- TGI (UACC-62 melanoma): 4 µM
- GI50 (SF-268 CNS): 0.95 µM
- TGI (SF-268 CNS): > 73.6 µM
- GI50 (COLO 205 colon): 4.8 µM
- TGI (COLO 205 colon): > 43 µM
- GI50 (SR leukemia): 0.415 µM
- TGI (SR leukemia): 10.5 µM
- GI50 (NCI-H522 lung): 2.16 µM
- TGI (NCI-H522 lung): > 49.4 µM
- GI50 (RPMI-8226 leukemia): 1.34 µM
- GI50 (NCI-H226 lung): 2.76 µM
- TGI (NCI-H226 lung): > 32.5 µM
- GI50 (SK-MEL-2 melanoma): 5.96 µM
- TGI (SK-MEL-2 melanoma): > 100 µM
- GI50 (HCT-15 colon): 0.529 µM
- TGI (HCT-15 colon): > 100 µM
- GI50 (SW-620 colon): 1.17 µM
- TGI (SW-620 colon): > 100 µM
- GI50 (PC-3 prostate): 7.81 µM
- TGI (PC-3 prostate): > 100 µM
- GI50 (A549 NSCLC): 2.33 µM
- TGI (A549 NSCLC): > 100 µM
- GI50 (CCRF-CEM leukemia): 0.396 µM
- GI50 (MALME-3M melanoma): 1.2 µM
- TGI (MALME-3M melanoma): 8.35 µM
- GI50 (OVCAR-5 ovarian): 4.63 µM
- TGI (OVCAR-5 ovarian): > 100 µM
- GI50 (CAKI-1 renal): 1.57 µM
- TGI (CAKI-1 renal): > 24.3 µM
- GI50 (TK-10 renal): 6.83 µM
- TGI (TK-10 renal): > 100 µM
- GI50 (HCT-116 colon): 0.403 µM
- TGI (HCT-116 colon): > 100 µM
- GI50 (HS 578T breast): 5.14 µM
- TGI (HS 578T breast): > 100 µM
- GI50 (OVCAR-8 ovarian): 1.22 µM
- TGI (OVCAR-8 ovarian): > 63.1 µM
- GI50 (MOLT-4 leukemia): 0.586 µM
- TGI (MOLT-4 leukemia): > 31.1 µM
- GI50 (SF-295 CNS): 1.38 µM
- GI50 (BT-549 breast): 2.35 µM
- TGI (BT-549 breast): > 89.9 µM
- GI50 (SK-MEL-5 melanoma): 1.15 µM
- TGI (SK-MEL-5 melanoma): 7.15 µM
- GI50 (SK-MEL-28 melanoma): 2 µM
- TGI (SK-MEL-28 melanoma): > 100 µM
- GI50 (U251 CNS): 0.639 µM
- TGI (U251 CNS): > 100 µM
- GI50 (MDA-MB-435): 0.404 µM
- TGI (MDA-MB-435): > 96.6 µM
- GI50 (DU-145 prostate): 1.97 µM
- TGI (DU-145 prostate): > 100 µM
- GI50 (LOX IMVI melanoma): 0.708 µM
- TGI (LOX IMVI melanoma): > 79.7 µM
- GI50 (SF-539 CNS): 2.12 µM
- TGI (SF-539 CNS): 32.3 µM
- GI50 (SK-OV-3 ovarian): 2.11 µM
- TGI (SK-OV-3 ovarian): 76.5 µM
- GI50 (MDA-MB-231 breast): 1.74 µM
- TGI (MDA-MB-231 breast): > 100 µM
- GI50 (NCI-H23 lung): 2.37 µM
- TGI (NCI-H23 lung): > 100 µM
- GI50 (HOP-62 NSCLC): 0.832 µM
- TGI (HOP-62 NSCLC): > 65 µM
- GI50 (A498 renal): 4.65 µM
- TGI (A498 renal): 49.3 µM
- GI50 (HL-60(TB) leukemia): 0.906 µM
- TGI (HL-60(TB) leukemia): 6.22 µM
- GI50 (OVCAR-3 ovarian): 0.41 µM
- TGI (OVCAR-3 ovarian): > 69 µM

Structure (SMILES): CCOC(=O)c1c(N2CCN(C)CC2)[nH]c(=O)c(C(c2c(Cl)cccc2Cl)c2c(O)c(C(=O)OCC)c(N3CCN(C)CC3)[nH]c2=O)c1O
- TGI (T-47D breast): 45.8 µM
- TGI (ACHN renal): 42.8 µM
- TGI (OVCAR-4 ovarian): 38.4 µM
- TGI (HCC-2998 colon): 78.1 µM
- TGI (786-0 renal): 87 µM
- TGI (KM12 colon): 49.7 µM
- TGI (SN12C renal): 48 µM
- TGI (RXF 393 renal): 38.8 µM
- TGI (HOP-92 NSCLC): 37.6 µM
- TGI (UO-31 renal): 39.1 µM
- TGI (MCF7 breast): > 100 µM
- TGI (M14 melanoma): 68.9 µM
- TGI (UACC-257 melanoma): 38.9 µM
- TGI (EKVX NSCLC): 34.2 µM
- TGI (NCI/ADR-RES ovarian): > 100 µM
- TGI (SNB-19 CNS): 37.2 µM
- TGI (NCI-H460 lung): 77 µM
- TGI (IGROV1 ovarian): 39.2 µM
- TGI (K-562 leukemia): 86.8 µM
- TGI (HT29 colon): 39.1 µM
- TGI (UACC-62 melanoma): 39.5 µM
- TGI (SF-268 CNS): 56.5 µM
- TGI (COLO 205 colon): > 100 µM
- TGI (SR leukemia): 67.6 µM
- TGI (NCI-H522 lung): 42 µM
- TGI (RPMI-8226 leukemia): > 100 µM
- TGI (NCI-H226 lung): 52.6 µM
- TGI (SK-MEL-2 melanoma): 53.2 µM
- TGI (HCT-15 colon): 97.7 µM
- TGI (SW-620 colon): 68.2 µM
- TGI (PC-3 prostate): 47.5 µM
- TGI (A549 NSCLC): 71.4 µM
- TGI (CCRF-CEM leukemia): > 100 µM
- TGI (MALME-3M melanoma): 41.5 µM
- TGI (OVCAR-5 ovarian): > 100 µM
- TGI (CAKI-1 renal): 52.7 µM
- TGI (TK-10 renal): 55.4 µM
- TGI (HCT-116 colon): > 100 µM
- TGI (HS 578T breast): 75 µM
- TGI (OVCAR-8 ovarian): 45 µM
- TGI (MOLT-4 leukemia): 62.2 µM
- TGI (SF-295 CNS): 63.3 µM
- TGI (BT-549 breast): 40.8 µM
- TGI (SK-MEL-5 melanoma): 40.1 µM
- TGI (SK-MEL-28 melanoma): 34.1 µM
- TGI (U251 CNS): 50 µM
- TGI (MDA-MB-435): 57.9 µM
- TGI (DU-145 prostate): 38.3 µM
- TGI (LOX IMVI melanoma): > 100 µM
- TGI (SF-539 CNS): 39.5 µM
- TGI (MDA-MB-231 breast): 55.1 µM
- TGI (NCI-H23 lung): > 100 µM
- TGI (HOP-62 NSCLC): > 100 µM
- TGI (A498 renal): 39.8 µM
- TGI (HL-60(TB) leukemia): 58.2 µM
- TGI (OVCAR-3 ovarian): 87.1 µM
